Reference: patent US20260256818A1, “NOVEL CO-DRUG, CO-ADMINISTRATION, AND SEQUENTIAL ADMINISTRATION OF BISPECIFIC RBP4/TTR LIGAND AND C20-D3-RETINOL FOR ELIMINATION OF MECHANISM-BASED OCULAR ADVERSE EFFECTS IN TREATING MACULAR DEGENERATION AND TTR AMYLOIDOSIS” (The Trustees of Columbia University in the City of New York, priority 2023, published 2026)

Assays:
[1] = cited from earlier work
[2] = test system: RBP4; settings: non-human primates, oral administration; cited from earlier work
[3] = test system: lipofuscin bisretinoid synthesis; settings: Abca4-/- mice; cited from earlier work
[4] = patients treated for TTR amyloidosis; cited from earlier work
[5] = test system: rhodopsin; test: Rhodopsin measured spectrophotometrically in retinal extracts of dark-adapted mice after 7 days oral dosing; type: in vivo; settings: wild-type Balb/c mice, 25 mg/kg daily oral (chow), n=8
Experimental: FIG. 14. Effects of C20-D3-retinyl acetate on rhodopsin levels in ACPHS-52-treated Balb/c mice. Rhodopsin was measured spectrophotometrically in retinal extracts (n=8) from dark-adapted treated and control mice. Treated mice were given 7 daily oral dose of 25 mg/kg ACPHS-52 or the same dose of ACPHS-52 along with 3.3 mg/kg C20-D3-retinyl acetate. Untreated control mice were kept on standard diet.
ACPHS-52 was previously identified and described as a compound that exemplifies a novel class of bispecific ligands that act as both RBP4 antagonists and kinetic stabilizers of TTR tetramers (Cioffi, C. L. et al. 2020). Thus, ACPHS-52 was used as a representative “first component” of the present disclosure in order to assess the feasibility of the co-drug strategy. Accordingly, an experiment was conducted to determine whether partial reduction in functional rhodopsin (opsin with conjugated 11-cis-retinal) induced by oral ACPHS-52 in mice can be compensated by co-administration with C20-D3-retinyl acetate.
The experiment was conducted in Balb/c mice. Three groups of mice were used: control untreated mice; mice treated with ACPHS-52; and mice treated with the ACPHS-52 plus C20-D3-retinyl acetate combination. […] Rhodopsin was measured spectrophotometrically in retinal extracts (n=8) from dark-adapted treated and control mice using a previously published protocol (Racz, B. et al. 2018).

[6] = test system: RBP4; settings: in vivo; cited from earlier work
[7] = target: TTR tetramers (Homo sapiens, UniProt P02766); settings: cited from earlier work
[8] = target: T1, RBP4 (Mus musculus, UniProt Q00724); settings: rodents; cited from earlier work
T1 construct: circulating RBP4 plasma levels in rodents; host or cells: plasma/serum of rodents

[9] = long-term use, cancer patients; cited from earlier work
[10] = Phase 2, dry AMD patients; cited from earlier work
[11] = test system: TTR; settings: ATTR-CM patients with symptomatic, chronic heart failure, Phase III; cited from earlier work

In the case of O=C(O)c1ccc2nc(-c3cc(Cl)cc(Cl)c3)oc2c1 [tafamidis], the “patients who do not respond” value [1] is given as “Approximately 30%”.
In the case of Cc1cc(C(=O)O)nc(N2C[C@H]3CC(c4ccccc4C(F)(F)F)C[C@H]3C2)n1 (stereo partly shown) [Compound 8, BPN-14136], the “effect on serum RBP4 levels” value [2] is listed as “robustly lowered serum RBP4 levels” and the “effect on retinal bisretinoid accumulation/synthesis” value [3] is listed as “inhibited lipofuscin bisretinoid synthesis”.
For patisiran, the ocular adverse effect [4] is given as “symptoms of night blindness in a subset of patients”.
For Cc1cc(C(=O)O)nc(N2CCC(COc3ccccc3C(F)(F)F)C2)n1 (stereo not shown) [ACPHS-52], the “reduction in rhodopsin in comparison to untreated mice” value [5] is given as 3 fold, the “effect on serum RBP4” value [6] is given as “pronounced reduction in serum RBP4” and the “effect on TTR tetramers” value [7] is given as “stabilization of TTR tetramers”.
In the case of O=C(O)c1ccccc1NC(=O)N1CCC(c2ccccc2C(F)(F)F)CC1 [Compound A1120, A1120], the “lowering of circulating RBP4 plasma levels” value [8] is listed as over 70% and the “effect on retinal bisretinoid accumulation/synthesis” value [3] is listed as “reduce retinal bisretinoid accumulation”.
For CC1=C(/C=C/C(C)=C/C=C/C(C)=C/C(=O)Nc2ccc(O)cc2)C(C)(C)CCC1 [fenretinide], the “yearly prevalence of transient and reversible ocular AEs such as diminished dark adaptation” value [9] is listed as 5.8-6.7% and the “drug-treated patients with reversible reduction in dark adaptation” value [10] is listed as ~ 10%.
For Cc1n[nH]c(C)c1CCCOc1cc(C(=O)O)ccc1F [AG10], the “stabilization of TTR” value [11] is listed as “near-complete stabilization of TTR”.
For [2H]C([2H])([2H])C(/C=C/C=C(C)/C=C/C1=C(C)CCCC1(C)C)=C\COC(C)=O [C20-D3-retinyl acetate], the “effect on retinal bisretinoid accumulation/synthesis” value [3] is given as “effective in inhibiting bisretinoid synthesis”.
